Target: T1, TACE (ADAM17) (Homo sapiens, UniProt P78536)
T1 construct: made in house; host or cells: mammalian cells or insect cells
Assay: TACE (ADAM17) inhibition test
Format: biochemical
Conditions: fluorescent synthetic substrate, 37° C. for 1.5 hours; read-out: TACE IC50
Description: The nucleotide sequence of TACE has been reported by Moss et al. (Moss, M. L. et al., Nature 1997, vol. 385, pp. 733-736). Based on this information, the cDNA of TACE was obtained according to the prescribed method from THP-1 cells or the like, and then incorporated the cDNA into an expression vector. Next, this vector was transformed into mammalian cells or insect cells, and TACE protein was expressed. The TACE protein was isolated, and used as an enzyme. Further, a fluorescent synthetic substrate Nma(N-methylanthranilic acid)-Leu-Ala-Gln-Ala-Val-Arg-Ser-Ser-Lys(Dnp(dinitrophenyl))-D-Arg-NH2 including the TACE-cleaved sequence of a membrane-bound TNF was used as a substrate. The enzyme reaction was carried out by adding 1.8 μL of a solution of the test substance to 90 μL of a fluorescent synthetic substrate prepared with an assay buffer B (50 mM tris-hydrochloric acid buffer (pH 7.5) including 200 mM sodium chloride, 5 mM calcium chloride, 10 μM zinc sulfate, and 0.05% PLURONIC F-68), then mixing 90 μL of a TACE enzyme solution prepared with an assay buffer A (50 mM tris-hydrochloric acid buffer (pH 7.5) including 200 mM sodium chloride, 5 mM calcium chloride, 10 μM zinc sulfate, and 2 mg/mL bovine serum albumin) and reacting at 37° C. for 1.5 hours. Enzyme activity was then determined by measuring with a fluorescence intensity meter (Labsystems, Fluoroskan Ascent) at an excitation wavelength of 355 nm and a measurement wavelength of 460 nm. The 50% inhibitory concentration (IC50) of the test substances was calculated by comparing enzyme activity in the presence and the absence of the test substance to determine the inhibition rate. Further, test substances having an IC50 strength of less than 100 nM were evaluated as “A”, and test substances having an IC50 strength of 100 nM or more were evaluated as “B”.

T1 sequence (P78536 215-824): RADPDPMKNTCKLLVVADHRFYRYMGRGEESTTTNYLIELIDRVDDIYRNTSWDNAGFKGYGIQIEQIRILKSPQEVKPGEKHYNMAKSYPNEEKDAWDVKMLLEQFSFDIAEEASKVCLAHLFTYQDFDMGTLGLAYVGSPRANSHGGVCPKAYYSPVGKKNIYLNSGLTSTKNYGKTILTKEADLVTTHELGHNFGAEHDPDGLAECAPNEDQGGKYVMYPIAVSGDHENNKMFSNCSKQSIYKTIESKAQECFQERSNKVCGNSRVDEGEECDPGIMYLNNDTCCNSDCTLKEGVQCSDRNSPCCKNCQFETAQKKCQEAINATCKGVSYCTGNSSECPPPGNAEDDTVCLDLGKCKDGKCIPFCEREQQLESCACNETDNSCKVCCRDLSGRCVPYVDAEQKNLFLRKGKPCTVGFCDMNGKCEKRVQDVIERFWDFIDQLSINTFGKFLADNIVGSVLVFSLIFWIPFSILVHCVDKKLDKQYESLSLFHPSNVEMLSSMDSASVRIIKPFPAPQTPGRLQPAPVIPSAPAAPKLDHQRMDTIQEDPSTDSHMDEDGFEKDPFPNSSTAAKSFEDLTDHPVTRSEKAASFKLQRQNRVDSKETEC

Row | Compound | IC50
1 | Cc1cccn(CC2(c3ccc(OC4C=CCCC4)cc3)NC(=O)NC2=O)c1=O (racemic) [Compound I-36, 5-[4-(cyclohex-2-en-1-yloxy)phenyl]-5-[(3-methyl-2-oxopyridin-1(2H)-yl)methyl]imidazolidine-2,4-dione] | < 0.1 µM
2 | Cc1cccn(CC2(c3ccc(OC4CCCCC4)cc3)NC(=O)NC2=O)c1=O (racemic) [Compound I-37, 5-[4-(cyclohexyloxy)phenyl]-5-[(3-methyl-2-oxopyridin-1(2H)-yl)methyl]imidazolidine-2,4-dione] | < 0.1 µM
3 | Cc1cc(C2(Cn3cccc(C)c3=O)NC(=O)NC2=O)ccc1OC1CCCC1 (racemic) [Compound I-39, 5-[4-(cyclopentyloxy)-3-methylphenyl]-5-[(3-methyl-2-oxopyridin-1(2H)-yl)methyl]imidazolidine-2,4-dione] | < 0.1 µM
4 | Cc1cccn(CC2(c3cc(F)c(F)c(F)c3)NC(=O)NC2=O)c1=O (racemic) [Compound I-44, 5-[(3-methyl-2-oxopyridin-1(2H)-yl)methyl]-5-(3,4,5-trifluorophenyl)imidazolidine-2,4-dione] | < 0.1 µM
5 | O=C1NC(=O)C(Cn2ccccc2=O)(c2ccccc2)N1 (racemic) [Compound I-46, 5-[(2-oxopyridin-1(2H)-yl)methyl]-5-phenylimidazolidine-2,4-dione] | < 0.1 µM
6 | COc1ccc(C2(Cn3ccccc3=O)NC(=O)NC2=O)cc1 (racemic) [Compound I-47, 5-(4-methoxyphenyl)-5-[(2-oxopyridin-1(2H)-yl)methyl]imidazolidine-2,4-dione] | < 0.1 µM
7 | O=C1NC(=O)C(Cn2cccc(F)c2=O)(c2ccc(F)cc2)N1 (racemic) [Compound I-48, 5-[(3-fluoro-2-oxopyridin-1(2H)-yl)methyl]-5-(4-fluorophenyl)-imidazolidine-2,4-dione] | < 0.1 µM
8 | O=C1NC(=O)C(Cn2cccc(Cl)c2=O)(c2ccccc2)N1 (racemic) [Compound I-50, 5-[(3-chloro-2-oxopyridin-1(2H)-yl)methyl]-5-phenylimidazolidine-2,4-dione] | < 0.1 µM
9 | O=C1NC(=O)C(Cn2cccc(Cl)c2=O)(c2cc3ccccc3o2)N1 (racemic) [Compound I-51, 5-(benzofuran-2-yl)-5-[(3-chloro-2-oxopyridin-1(2H)-yl)methyl]imidazolidine-2,4-dione] | < 0.1 µM
10 | COc1ccc(C2(Cn3cccc(Br)c3=O)NC(=O)NC2=O)cc1 (racemic) [Compound I-52, 5-[(3-bromo-2-oxopyridin-1(2H)-yl)methyl]-5-(4-methoxyphenyl)imidazolidine-2,4-dione] | < 0.1 µM
11 | CCc1cccn(CC2(c3ccc(OC)cc3)NC(=O)NC2=O)c1=O (racemic) [Compound I-53, 5-[(3-ethyl-2-oxopyridin-1(2H)-yl)methyl]-5-(4-methoxyphenyl)imidazolidine-2,4-dione] | ≥ 0.1 µM
12 | Cc1cccn(CC2(c3cccc(O)c3)NC(=O)NC2=O)c1=O (racemic) [Compound I-54, 5-(3-hydroxyphenyl)-5-[(3-methyl-2-oxopyridin-1(2H)-yl)methyl]imidazolidine-2,4-dione] | ≥ 0.1 µM
13 | Cc1cccn(CC2(c3ccncc3)NC(=O)NC2=O)c1=O (racemic) [Compound I-55] | < 0.1 µM
14 | Cc1cccn(CC2(c3cccc(Br)c3)NC(=O)NC2=O)c1=O (racemic) [Compound I-57] | < 0.1 µM
15 | Cc1cccn(CC2(c3cccc(OCc4ccccc4)c3)NC(=O)NC2=O)c1=O (racemic) [Compound I-58] | < 0.1 µM
16 | Cc1cccn(CC2(c3ccc4c(c3)OCCO4)NC(=O)NC2=O)c1=O (racemic) [Compound I-59] | < 0.1 µM
17 | Cc1cccn(CC2(c3ccc(F)cc3F)NC(=O)NC2=O)c1=O (racemic) [Compound I-61] | ≥ 0.1 µM
18 | Cc1cccn(CC2(c3cccc(-c4cccnc4)c3)NC(=O)NC2=O)c1=O (racemic) [Compound I-62] | < 0.1 µM
19 | Cc1cccn(CC2(c3cccc(C#CC(C)(C)C)c3)NC(=O)NC2=O)c1=O (racemic) [Compound I-63] | ≥ 0.1 µM
20 | Cc1cccn(CC2(c3ccc4c(c3)OCO4)NC(=O)NC2=O)c1=O (racemic) [Compound I-65] | < 0.1 µM
21 | Cc1cccn(CC2(c3ccc(C4CCCCC4)cc3)NC(=O)NC2=O)c1=O (racemic) [Compound I-66] | < 0.1 µM
22 | Cc1cccn(CC2(c3cccc(OC(F)(F)F)c3)NC(=O)NC2=O)c1=O (racemic) [Compound I-67] | < 0.1 µM
23 | Cc1cccn(CC2(c3ccccc3OCc3ccccc3)NC(=O)NC2=O)c1=O (racemic) [Compound I-68] | ≥ 0.1 µM
24 | COc1ccc(F)cc1C1(Cn2cccc(C)c2=O)NC(=O)NC1=O (racemic) [Compound I-69] | < 0.1 µM
25 | COc1cc(C)c(Cl)cc1C1(Cn2cccc(C)c2=O)NC(=O)NC1=O (racemic) [Compound I-70] | ≥ 0.1 µM
26 | Cc1cccn(CC2(c3cccc(C#CCN(C)C)c3)NC(=O)NC2=O)c1=O (racemic) [Compound I-71] | < 0.1 µM
27 | COc1ccc(C)cc1C1(Cn2cccc(C)c2=O)NC(=O)NC1=O (racemic) [Compound I-76] | ≥ 0.1 µM
28 | Cc1cccn(CC2(c3ccc4c(c3)CCCC4)NC(=O)NC2=O)c1=O (racemic) [Compound I-77] | < 0.1 µM
29 | Cc1cccn(CC2(c3ccc(OC(F)F)cc3)NC(=O)NC2=O)c1=O (racemic) [Compound I-78] | < 0.1 µM
30 | Cc1cccn(CC2(c3ccc(OC(F)(F)F)cc3)NC(=O)NC2=O)c1=O (racemic) [Compound I-79] | < 0.1 µM

Continued, values first:

Row | IC50 | Compound
31 | < 0.1 µM | Cc1ccccc1Oc1ccc(C2(Cn3cccc(C)c3=O)NC(=O)NC2=O)cc1 (racemic) [Compound I-35, 5-[(3-methyl-2-oxopyridin-1(2H)-yl)methyl]-5-[4-(o-tolyloxy)phenyl]imidazolidine-2,4-dione]
32 | < 0.1 µM | Cc1cccn(CC2(c3ccc(Cc4ccccc4)cc3)NC(=O)NC2=O)c1=O (racemic) [Compound I-40, 5-(4-benzylphenyl)-5-[(3-methyl-2-oxopyridin-1(2H)-yl)methyl]imidazolidine-2,4-dione]
33 | < 0.1 µM | Cc1cccn(CC2(c3ccc(Cc4ccc(F)cc4)cc3)NC(=O)NC2=O)c1=O (racemic) [Compound I-41, 5-[4-(4-fluorobenzyl)phenyl]-5-[(3-methyl-2-oxopyridin-1(2H)-yl)methyl]imidazolidine-2,4-dione]
34 | < 0.1 µM | Cc1cccn(CC2(c3ccc(-c4nn[nH]n4)cc3)NC(=O)NC2=O)c1=O (racemic) [Compound I-42, 5-[4-(2H-tetrazol-5-yl)phenyl]-5-[(3-methyl-2-oxopyridin-1(2H)-yl)methyl]imidazolidine-2,4-dione]
35 | < 0.1 µM | C=Cc1ccc(C2(Cn3cccc(C)c3=O)NC(=O)NC2=O)cc1 (racemic) [Compound I-43, 5-[(3-methyl-2-oxopyridin-1(2H)-yl)methyl]-5-(4-vinylphenyl)imidazolidine-2,4-dione]
36 | < 0.1 µM | CCCc1ccc(C2(Cn3cccc(C)c3=O)NC(=O)NC2=O)cc1 (racemic) [Compound I-45, 5-[(3-methyl-2-oxopyridin-1(2H)-yl)methyl]-5-(4-propylphenyl)imidazolidine-2,4-dione]
37 | < 0.1 µM | O=C1NC(=O)C(Cn2cccc(F)c2=O)(c2ccc(-c3ccccc3)cc2)N1 (racemic) [Compound I-49, 5-([1,1′-biphenyl]-4-yl)-5-[(3-fluoro-2-oxopyridin-1(2H)-yl)methyl]imidazolidine-2,4-dione]
38 | < 0.1 µM | Cc1cccn(CC2(c3ccc4ccccc4c3)NC(=O)NC2=O)c1=O (racemic) [Compound I-56]
39 | ≥ 0.1 µM | COc1ccccc1C1(Cn2cccc(C)c2=O)NC(=O)NC1=O (racemic) [Compound I-60]
40 | < 0.1 µM | Cc1cccn(CC2(c3ccc(OCc4ccccc4)cc3)NC(=O)NC2=O)c1=O (racemic) [Compound I-64]
41 | < 0.1 µM | COc1ccc(-c2ccc(C3(Cn4cccc(C)c4=O)NC(=O)NC3=O)cc2)cc1 (racemic) [Compound I-72]
42 | < 0.1 µM | COc1cccc(-c2ccc(C3(Cn4cccc(C)c4=O)NC(=O)NC3=O)cc2)c1 (racemic) [Compound I-73]
43 | < 0.1 µM | COc1ccccc1-c1ccc(C2(Cn3cccc(C)c3=O)NC(=O)NC2=O)cc1 (racemic) [Compound I-74]
44 | < 0.1 µM | Cc1cccn(CC2(c3ccc(-c4ccc(F)cc4)cc3)NC(=O)NC2=O)c1=O (racemic) [Compound I-75]
45 | < 0.1 µM | Cc1cccc(Oc2ccc(C3(Cn4cccc(C)c4=O)NC(=O)NC3=O)cc2)c1 (racemic) [Compound I-80]
46 | < 0.1 µM | COc1ccc(Oc2ccc(C3(Cn4cccc(C)c4=O)NC(=O)NC3=O)cc2)cc1 (racemic) [Compound I-81]
47 | < 0.1 µM | Cc1cccn(CC2(c3ccc(Oc4ccc(Cl)cc4)cc3)NC(=O)NC2=O)c1=O (racemic) [Compound I-82]
48 | < 0.1 µM | COc1cccc(Oc2ccc(C3(Cn4cccc(C)c4=O)NC(=O)NC3=O)cc2)c1 (racemic) [Compound I-83]

— patent US20160168540A1, “COMPOSITION FOR MAINTAINING PLATELET FUNCTION” (KYOTO UNIVERSITY, priority 2013, published 2016)
